# Patent publication US20140213538A1, “LYSOPHOSPHATIDIC ACID RECEPTOR ANTAGONISTS” (InterMune, Inc., priority 2013, published 2014)
# What was measured:
# LPA1 = LPA1 (Homo sapiens, UniProt Q92633); test: LPA1 Migration Assay (Oris); type: cell-based; parameters: host or cells: primary fibroblasts (lung, dermal), HFL-1, 3T3 and CHO cells expressing LPA1R; settings: read-out: Cell Migration EC50
# Description: LPA1 Migration Assay Migration of primary fibroblasts (including lung, dermal), HFL-1, 3T3 and CHO cells expressing LPA1R were monitored using the Oris™ assay (Platypus Technologies, Madison, Wis.). These cells were dye (Cell Tracker Green™) loaded and serum starved for 12-24 hrs. In response to chemoattractants such as LPA and serum, the cells migrated inward in to the exclusion (detection) zone. After fixing, fluorescent cells in the detection zone were counted using a high content reader. The ability of LPA1 antagonists to inhibit cell migration is quantified by plotting cell number vs. compound concentration and curve fitting the resulting dose-response curve to a 4 parameter logistic function.
# LPA/S1P GPCR of interest = biological target: T1, LPA/S1P GPCR of interest (Homo sapiens, UniProt Q92633); test: Beta-Arrestin based assay (PathHunter); type: cell-based
# T1 construct: host or cells: CHO
# T1 sequence (Q92633 whole entry): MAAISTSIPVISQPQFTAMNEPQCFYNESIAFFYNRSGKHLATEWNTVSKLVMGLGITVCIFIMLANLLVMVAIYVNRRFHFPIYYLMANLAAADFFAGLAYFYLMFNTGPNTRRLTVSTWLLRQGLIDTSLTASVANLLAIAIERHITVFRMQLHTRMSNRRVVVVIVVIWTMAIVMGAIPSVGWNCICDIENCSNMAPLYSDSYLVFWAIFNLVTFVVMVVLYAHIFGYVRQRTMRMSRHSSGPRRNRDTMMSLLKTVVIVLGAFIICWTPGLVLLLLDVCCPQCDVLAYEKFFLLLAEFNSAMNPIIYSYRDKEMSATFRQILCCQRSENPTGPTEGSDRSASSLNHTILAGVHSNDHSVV
# Summary of the method: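 EA Parental CHO cells (DiscoverX) were transfected with FuGENE (Roche) using CMV promoter-driven DNA constructs encoding the LPA/S1P GPCR of interest fused to a ProLink tag. Beta-arrestin recruitment in agonist mode was assessed 24-48 hrs later with PathHunter kits. Tests ran in quadruplicate in white 384 well plates, and end point luminescence was fit to a 4 parameter logistic function.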
# Sequence of LPA1 (Q92633 whole entry): as above
Compound,EC50 (LPA1),EC50 (LPA/S1P GPCR of interest)
COc1cc(CC(=O)O)ccc1-c1cc2sc(-c3cnn(C)c3NC(=O)O[C@H](C)c3ccccc3)cc2s1 [IT162],> 0.5 µM,> 0.5 µM
C[C@@H](OC(=O)Nc1c(-c2cc3sc(-c4ccc(CC(=O)O)c(F)c4)cc3s2)cnn1C)c1ccccc1 [IT164],> 0.5 µM,< 0.05 µM
C[C@@H](OC(=O)Nc1c(-c2cc3sc(-c4ccc(CC(=O)O)c(Cl)c4)cc3s2)cnn1C)c1ccccc1 [IT165],> 0.5 µM,0.05 to 0.5 µM
Cc1nsc(-c2cc3sc(-c4ccc(CC(=O)O)c(Cl)c4)cc3s2)c1NC(=O)O[C@H](C)c1ccccc1 [IT167],> 0.5 µM,> 0.5 µM
Cc1cc(CC(=O)O)ccc1-c1cc2sc(-c3cnn(C)c3NC(=O)O[C@H](C)c3ccccc3)cc2s1 [IT169],> 0.5 µM,0.05 to 0.5 µM
Cc1cc(CC(=O)O)ccc1-c1cc2sc(-c3snc(C)c3NC(=O)O[C@H](C)c3ccccc3)cc2s1 [IT170],> 0.5 µM,0.05 to 0.5 µM
Cc1noc(-c2ccc(-c3ccc(S(=O)(=O)C4CC4)cc3)cc2)c1NC(=O)O[C@H](C)c1ccccc1 [IT173],> 0.5 µM,> 0.5 µM
Cc1noc(-c2ccc(-c3ccc(S(=O)(=O)CC4CC4)cc3)cc2)c1NC(=O)O[C@H](C)c1ccccc1 [IT174],> 0.5 µM,> 0.5 µM
C[C@@H](OC(=O)Nc1c(-c2ccc(-c3ccc(CC(=O)O)s3)cc2)nnn1C)c1ccccc1 [IT178],> 0.5 µM,0.05 to 0.5 µM
C[C@@H](OC(=O)Nc1c(-c2cc3sc(-c4ccc(CC(=O)O)cc4N)cc3s2)cnn1C)c1ccccc1 [IT180],> 0.5 µM,> 0.5 µM
Cc1nsc(-c2cc3sc(-c4ccc(CC(=O)O)cc4N)cc3s2)c1NC(=O)O[C@H](C)c1ccccc1 [IT182],> 0.5 µM,> 0.5 µM
Cc1nsc(-c2cc3sc(-c4cnc(C5(C(=O)O)CC5)s4)cc3s2)c1NC(=O)O[C@H](C)c1ccccc1 [IT184],> 0.5 µM,> 0.5 µM
Cc1nsc(-c2cc3sc(-c4ccc(CC(=O)O)nc4)cc3s2)c1NC(=O)O[C@H](C)c1ccccc1 [IT185],> 0.5 µM,> 0.5 µM
C[C@@H](OC(=O)Nc1c(-c2cc3sc(-c4cc(Cl)c(CC(=O)O)cc4F)cc3s2)nnn1C)c1ccccc1 [IT186],> 0.5 µM,> 0.5 µM
C[C@@H](OC(=O)Nc1c(-c2cc3sc(-c4cc(Cl)c(CC(=O)O)cc4F)cc3s2)cnn1C)c1ccccc1 [IT187],> 0.5 µM,> 0.5 µM
C[C@@H](OC(=O)Nc1c(-c2cc3sc(-c4ccc5[nH]cc(CC(=O)O)c5c4)cc3s2)cnn1C)c1ccccc1 [IT188],> 0.5 µM,0.05 to 0.5 µM

# Second part, the molecule after the results:
EC50 (LPA1),EC50 (LPA/S1P GPCR of interest),Compound
0.05 to 0.5 µM,0.05 to 0.5 µM,C[C@@H](OC(=O)Nc1c(-c2cc3sc(-c4cc(F)c(CC(=O)O)c(F)c4)cc3s2)nnn1C)c1ccccc1 [IT158]
> 0.5 µM,0.05 to 0.5 µM,C[C@@H](OC(=O)Nc1c(-c2cc3sc(-c4ccc(CC(=O)O)cc4F)cc3s2)nnn1C)c1ccccc1 [IT159]
0.05 to 0.5 µM,0.05 to 0.5 µM,C[C@@H](OC(=O)Nc1c(-c2cc3sc(-c4ccc(CC(=O)O)cc4)cc3s2)nnn1C)c1ccccc1 [IT160]
> 0.5 µM,0.05 to 0.5 µM,C[C@@H](OC(=O)Nc1c(-c2cc3sc(-c4ccc(CC(=O)O)c(Cl)c4)cc3s2)nnn1C)c1ccccc1 [IT166]
> 0.5 µM,> 0.5 µM,C[C@@H](OC(=O)Nc1c(-c2cc3sc(-c4ccc(CC(=O)O)cc4Cl)cc3s2)nnn1C)c1ccccc1 [IT168]
> 0.5 µM,0.05 to 0.5 µM,Cc1cc(CC(=O)O)ccc1-c1cc2sc(-c3nnn(C)c3NC(=O)O[C@H](C)c3ccccc3)cc2s1 [IT171]
> 0.5 µM,0.05 to 0.5 µM,C[C@@H](OC(=O)Nc1c(-c2cc3sc(-c4ccc(CC(=O)O)s4)cc3s2)nnn1C)c1ccccc1 [IT179]
> 0.5 µM,> 0.5 µM,C[C@@H](OC(=O)Nc1c(-c2cc3sc(-c4ccc(CC(=O)O)cc4N)cc3s2)nnn1C)c1ccccc1 [IT181]
> 0.5 µM,> 0.5 µM,COc1cc(CC(=O)O)ccc1-c1cc2sc(-c3nnn(C)c3NC(=O)O[C@H](C)c3ccccc3)cc2s1 [IT183]
